# Measured values: US10975037B2 (priority 2018, dated 2021)
# Like-named read-outs stand apart in the source and are kept apart here. Marks after values point to notes of the source that are not given here.
# Experiments:
# [1] = molecular target: human RORγt ligand binding domain (RORγt LBD) (Homo sapiens (Human), UniProt P51449); experiment: RORγt ThermoFluor® assay (thermal shift binding)
# Experimental: This approach is applicable to a wide variety of systems, and rigorous in theoretical interpretation through quantitation of equilibrium binding constants (KD).
# The shift in the melting point described as a ΔTm is proportional to the concentration and affinity of the ligand.
# RORγt ThermoFluor® Assay Construct
# Reference wells contained RORγt without compounds, and the assay conditions were as follows: • 0.065 mg/mL RORγt • 60 μM 1,8-ANS • 100 mM Hepes, pH 7.0 • 10 mM NaCl • 2.5 mM GSH • 0.002% Tween-20
# Project compounds were arranged in a pre-dosed mother plate (Greiner Bio-one) wherein compounds are serially diluted in 100% DMSO by 1:2 from a high concentration of 10 mM over 12 columns within a series (column 12 is a reference well containing DMSO, no compound). The compounds were robotically dispensed directly into assay plates (1×=46 nL) using a Hummingbird capillary liquid handling instrument (Digilab). Following compound dispense, protein and dye in buffer was added to achieve the final assay volume of 3 μL, followed by 1 μL of silicone oil.
# full-length human RORγt = full-length human RORγt (Homo sapiens (Human), UniProt P51449); experiment: RORγt (full-length human) reporter assay, conditions A or B, HEK293T cells; type: cell-based
# Sequence of full-length human RORγt (P51449 other isoform, or with tags, fused parts or gaps): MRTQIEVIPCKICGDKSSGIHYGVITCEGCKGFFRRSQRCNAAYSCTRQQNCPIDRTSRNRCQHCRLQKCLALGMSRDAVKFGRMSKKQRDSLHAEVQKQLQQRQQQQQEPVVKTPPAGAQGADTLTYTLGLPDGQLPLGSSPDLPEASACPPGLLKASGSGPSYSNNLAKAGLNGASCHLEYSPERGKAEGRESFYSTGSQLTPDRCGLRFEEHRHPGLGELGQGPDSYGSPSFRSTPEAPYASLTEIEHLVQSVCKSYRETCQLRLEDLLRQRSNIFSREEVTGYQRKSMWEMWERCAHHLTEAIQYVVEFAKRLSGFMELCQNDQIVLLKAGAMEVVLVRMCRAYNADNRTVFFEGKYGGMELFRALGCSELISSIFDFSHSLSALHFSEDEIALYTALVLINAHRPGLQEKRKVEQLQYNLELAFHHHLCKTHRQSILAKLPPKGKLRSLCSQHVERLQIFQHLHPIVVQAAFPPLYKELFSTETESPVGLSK
# Experimental: RORγt (Full-Length Human) Reporter Assay:
# (§1) HEK293T cells were plated at 35,000 per well in 96-well plate in medium of DMEM with 10% FBS. […] After overnight (16 to 20 hours) incubation, media were removed and cells were lysed with 50 L Glo Lysis Buffer (Promega) for 10-15 minutes followed by 10 minute incubation with 50 μL Dual Glo reagent (Promega) at room temperature. Firefly luciferase luminescence was measured using a BMG Pherastar plate reader. To each well, 50 μL Stop and Glo reagent was added and incubated for 10 minutes at room temperature. Renilla luminescence was measured using a BMG Pherastar plate reader. To calculate the effect of compounds on RORγt activity, firefly values were normalized against values of DMSO only and values of reference compound at saturating concentration, then further normalized against Renilla signals. IC50s were generated by plotting final Renilla normalized data against compound concentration and percent inhibition was calculated against DMSO control.
# as §1, with “at 8750 cells” for “at 35,000”, “in 384-well” for “in 96-well”, “with 20” for “with 50”, “well, 20” for “well, 50”
# [2] = read-out: ThermoFluor® Assay, Kd
# [3] = HEK-293T, 0.22 μM compound concentration (footnote *******), read-out: RORγt (FL) Reporter Assay A or B, % inhibition
# [4] = RORγt (FL) Reporter Assay A or B, IC50, HEK293T cells
# [5] = HEK-293T, 3 μM compound concentration (footnote *), read-out: RORγt (FL) Reporter Assay A or B, % inhibition
# Sequence of human RORγt ligand binding domain (RORγt LBD) (P51449 other isoform, or with tags, fused parts or gaps): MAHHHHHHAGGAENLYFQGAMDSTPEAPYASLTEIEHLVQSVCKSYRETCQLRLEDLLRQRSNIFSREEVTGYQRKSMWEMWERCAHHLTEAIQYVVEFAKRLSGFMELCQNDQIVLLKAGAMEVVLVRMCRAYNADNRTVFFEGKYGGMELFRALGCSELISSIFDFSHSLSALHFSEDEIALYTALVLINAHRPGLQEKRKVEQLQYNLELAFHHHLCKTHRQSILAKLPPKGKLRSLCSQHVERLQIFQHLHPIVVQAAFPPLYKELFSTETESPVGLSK
Structure (SMILES),"Kd [1, 2]",IC50 (full-length human RORγt; [4]),further results
"CCn1nc(C(=O)NC[C@]2(C#N)CC[C@@H](S(C)(=O)=O)CC2)c(Cl)c1-c1ccc(CC(C)(C)C(F)(F)F)cc1 [Example 169, 4-Chloro-N-(((1s*,4s*)-1-cyano-4-(methylsulfonyl)cyclohexyl)methyl)-1-ethyl-5-(4-(3,3,3-trifluoro-2,2-dimethylpropyl)phenyl)-1H-pyrazole-3-carboxamide]",3.4 nM,41 nM,inhibition at […] (full-length human RORγt; [3]): 85%
"CCn1nc(C(=O)NC[C@]2(O)CC[C@@H](S(C)(=O)=O)CC2)c(Cl)c1-c1ccc(C[C@H](C)C(F)(F)F)cc1OC(F)F (single isomer, unassigned) [Example 56, 4-Chloro-5-(2-(difluoromethoxy)-4-((S*)-3,3,3-trifluoro-2-methylpropyl)phenyl)-1-ethyl-N-(((1s,4R)-1-hydroxy-4-(methylsulfonyl)cyclohexyl)methyl)-1H-pyrazole-3-carboxamide]",–,8.7 nM,"Kd ([1]; ThermoFluor® Assay, Kd): 1 nM; inhibition at […] (full-length human RORγt; HEK-293T, 0.11 μM compound concentration (footnote ********), read-out: RORγt (FL) Reporter Assay A or B, % inhibition): 94%"
"CCn1nc(C(=O)NC[C@]2(O)CC[C@@H](S(C)(=O)=O)CC2)c(Cl)c1-c1ccc(C[C@@H](C)C(F)(F)F)cc1OC(F)F (single isomer, unassigned) [Example 136, 4-Chloro-5-(2-(difluoromethoxy)-4-((R*)-3,3,3-trifluoro-2-methylpropyl)phenyl)-1-ethyl-N-(((1s,4S)-1-hydroxy-4-(methylsulfonyl)cyclohexyl)methyl)-1H-pyrazole-3-carboxamide]",–,3.6 nM,"Kd ([1]; ThermoFluor® Assay, Kd): 1.1 nM; inhibition at […] (full-length human RORγt; HEK-293T, 0.33 μM compound concentration (footnote *****), read-out: RORγt (FL) Reporter Assay A or B, % inhibition): 89%"
"CCn1nc(C(=O)NC[C@]2(O)CC[C@@H](S(C)(=O)=O)CC2)c(Cl)c1-c1ccc(C2(O)CCC(C(F)(F)F)CC2)cc1OC(F)F (single isomer, unassigned) [Example 113, 4-Chloro-5-(2-(difluoromethoxy)-4-((1r*,4r*)-1-hydroxy-4-(trifluoromethyl)cyclohexyl)phenyl)-1-ethyl-N-(((1s,4s)-1-hydroxy-4-(methylsulfonyl)cyclohexyl)methyl)-1H-pyrazole-3-carboxamide]",–,61 nM,"Kd ([1]; ThermoFluor® Assay, Kd): 120 nM; inhibition at 3 µM (full-length human RORγt; [5]): 88%"
"CCn1nc(C(=O)NC[C@H]2CC[C@H](S(=O)(=O)NC(N)=O)CC2)c(Cl)c1-c1ccc(CC(C)(C)C(F)(F)F)cc1OC(F)F [Example 69, N-(((1r,4r)-4-(N-Carbamoylsulfamoyl)cyclohexyl)methyl)-4-chloro-5-(2-(difluoromethoxy)-4-(3,3,3-trifluoro-2,2-dimethylpropyl)phenyl)-1-ethyl-1H-pyrazole-3-carboxamide]",0.29 nM,–,"RORγt (FL) Reporter Assay A or B, % inhibition (full-length human RORγt; 3 μM compound concentration (footnote *)): 100* %; IC50 (full-length human RORγt; HEK293T cells, read-out: RORγt (FL) Reporter Assay A or B, IC50): 51 nM"
"Cc1c(C(=O)NC[C@]2(O)CC[C@@H](S(C)(=O)=O)CC2)nn(CC(C)(C)O)c1-c1ccc(CC(C)(C)C(F)(F)F)cc1OC(F)F [Example 146, 5-(2-(Difluoromethoxy)-4-(3,3,3-trifluoro-2,2-dimethylpropyl)phenyl)-1-(2-hydroxy-2-methylpropyl)-N-(((1s,4s)-1-hydroxy-4-(methylsulfonyl)cyclohexyl)methyl)-4-methyl-1H-pyrazole-3-carboxamide]",15 nM,15 nM,inhibition at 3 µM (full-length human RORγt; [5]): 106%
"CCn1nc(C(=O)NC[C@H]2CC[C@H](S(C)(=O)=O)CC2)c(C)c1-c1ccc(CCCC(F)(F)F)cc1OC(F)F [Example 78, 5-(2-(Difluoromethoxy)-4-(4,4,4-trifluorobutyl)phenyl)-1-ethyl-4-methyl-N-(((1r,4r)-4-(methylsulfonyl)cyclohexyl)methyl)-1H-pyrazole-3-carboxamide]",0.59 nM,12 nM,inhibition at […] (full-length human RORγt; [3]): 93%
"CCn1nc(C(=O)NC[C@]2(O)CC[C@@H](S(C)(=O)=O)CC2)c(Cl)c1-c1ccc(CC(C)(C)C(F)(F)F)cc1C [Example 183, 4-Chloro-1-ethyl-N-(((1s,4s)-1-hydroxy-4-(methylsulfonyl)cyclohexyl)methyl)-5-(2-methyl-4-(3,3,3-trifluoro-2,2-dimethylpropyl)phenyl)-1H-pyrazole-3-carboxamide]",3 nM,3.9 nM,inhibition at […] (full-length human RORγt; [3]): 70%
"CCn1nc(C(=O)NC[C@@]2(O)CC[C@H](S(C)(=O)=O)C[C@@H]2O)c(C)c1-c1ccc(C[C@@H](C)C(F)(F)F)cc1OC(F)F (stereo in doubt) [Example 141, 5-(2-(Difluoromethoxy)-4-((R*)-3,3,3-trifluoro-2-methylpropyl)phenyl)-N-(((1S*,2S*,4S*)-1,2-dihydroxy-4-(methylsulfonyl)cyclohexyl)methyl)-1-ethyl-4-methyl-1H-pyrazole-3-carboxamide]",–,85 nM,"Kd ([1]; ThermoFluor® Assay, Kd): 5.8 nM; inhibition at 3 µM (full-length human RORγt; [5]): 84%"
"CCn1nc(C(=O)NC[C@]2(O)CC[C@@H](S(C)(=O)=O)CC2)c(Cl)c1-c1ccc(CC(C)(C)C(F)(F)F)cc1C(F)(F)F [Example 163, 4-Chloro-1-ethyl-N-(((1s,4s)-1-hydroxy-4-(methylsulfonyl)cyclohexyl)methyl)-5-(4-(3,3,3-trifluoro-2,2-dimethylpropyl)-2-(trifluoromethyl)phenyl)-1H-pyrazole-3-carboxamide]",0.63 nM,3.3 nM,inhibition at […] (full-length human RORγt; [3]): 78%
"CCn1nc(C(=O)NC[C@H]2CC[C@H](S(C)(=O)=O)CC2)c(Cl)c1-c1ccc(N[C@H](C)C(F)(F)F)cc1Cl [Example 176, 4-Chloro-5-(2-chloro-4-(((R)-1,1,1-trifluoropropan-2-yl)amino)phenyl)-1-ethyl-N-(((1r,4R)-4-(methylsulfonyl)cyclohexyl)methyl)-1H-pyrazole-3-carboxamide]",3.8 nM,18 nM,"inhibition at 0.67 µM (full-length human RORγt; HEK-293T, 0.67 μM compound concentration (footnote ****), read-out: RORγt (FL) Reporter Assay A or B, % inhibition): 102%"
"CCn1nc(C(=O)NC[C@H]2CC[C@H](S(C)(=O)=O)CC2)c(Cl)c1-c1ccc(C(O)(C(F)(F)F)C(F)(F)F)cc1OC(F)F [Example 116, 4-Chloro-5-(2-(difluoromethoxy)-4-(1,1,1,3,3,3-hexafluoro-2-hydroxypropan-2-yl)phenyl)-1-ethyl-N-(((1r,4r)-4-(methylsulfonyl)cyclohexyl)methyl)-1H-pyrazole-3-carboxamide]",0.15 nM,3.4 nM,inhibition at 3 µM (full-length human RORγt; [5]): 106%
"Cc1c(C(=O)NC[C@]2(O)CC[C@@H](S(C)(=O)=O)CC2)nn(C)c1-c1ccc(CC(C)(C)C(F)(F)F)cc1OC(F)F [Example 157, 5-(2-(Difluoromethoxy)-4-(3,3,3-trifluoro-2,2-dimethylpropyl)phenyl)-N-(((1s,4s)-1-hydroxy-4-(methylsulfonyl)cyclohexyl)methyl)-1,4-dimethyl-1H-pyrazole-3-carboxamide]",0.8 nM,13 nM,"inhibition at 0.3 µM (full-length human RORγt; HEK-293T, read-out: RORγt (FL) Reporter Assay A or B, % inhibition): 101%"
"CCn1nc(C(=O)NC[C@H]2CC[C@H](S(C)(=O)=O)CC2)c(C#N)c1-c1ccc(CC(C)C(F)(F)F)cc1OC (stereo partly drawn) [Example 123, 4-Cyano-1-ethyl-5-(2-methoxy-4-(3,3,3-trifluoro-2-methylpropyl)phenyl)-N-(((1r,4r)-4-(methylsulfonyl)cyclohexyl)methyl)-1H-pyrazole-3-carboxamide]",9.6 nM,35 nM,"inhibition at 2 µM (full-length human RORγt; HEK-293T, 2 μM compound concentration, read-out: RORγt (FL) Reporter Assay A or B, % inhibition): 85%"
